Data on 2 compounds can be found in patent US8884007B2, “Hexenone compounds and medical use thereof” (Institute of Pharmacology and Toxicology Medical Sciences …, priority 2010, dated 2014).

Structures are written as SMILES.

The subject of data set [1] is TG-induced cardiomyocytes apoptosis. Put plainly: Protection against TG-induced cardiomyocytes apoptosis (MTT). The data set is classed as cell-based, Wistar sucking mice. On the procedure: The isolation and culture of cardiomyocytes were performed by referring to the differential adhesion method (Kreider, A. Messing, H. Doan, S. U. Kim, R. P. Lisak and D. E. Pleasure, Enrichment of Schwann cell cultures from neonatal rat sciatic nerve by differential adhesion, Brain Res 2 (1981), pp. 433-444). Wistar sucking mice newborn within 24 h were used, sterilized at skin of ventrum with iodine tincture and ethanol, subjected to thoracotomy using scissors at subxiphoid median line with a deviation to left, heart was taken out after slant thoracotomy and placed in PBS precooled with ice; the heart was softly blown and beaten with 0.01M PBS to remove blood cells and other tissues, then cut into pieces with 0.5 mm^3 size, washed with 0.01M PBS repeatedly for 2-3 times; the pieces were placed in conical flask, added with 4 ml of 0.125% pancretin, 1 ml of 0.1% collagenase II (final concentrations separately being 0.1% and 0.02%), shaken in 37° C. water bath for 10 min, the supernatant was discarded; then 4 ml of 0.125% pancretin and 1 ml of 0.1% collagenase II again, shaken in 37° C. water bath for digestion for 10 min, the supernatant was sucked and transferred to a centrifuge tube, and the supernatant was added with DMEM containing 10% FBS to terminate digestion; the step of shaking and digestion in water bath was repeated for 3-4 times, until the tissue pieces were completely digested; the collected cell suspension was centrifuged under 1000 rpm for 10 min, the supernatant was removed, then a culture medium was added for resuspension; the resuspended cells were inoculated in a cell culture flask, placed in CO2 incubator at 37° C. for incubation for 1.5 h, then the culture medium was sucked out, countered under microscope, then DMEM culture medium containing 10% FBS was used to adjust cell density, inoculated in an amount of 1×10^4 to a 96-well plate, placed in 5% CO2 incubator at 37° C. for 24 h, then half medium was replaced, a culture medium containing 0.1% Brdu was supplementally added; then the medium was replaced once per 48 h, and primary cardiomyocytes were obtained after 4 days of cultivation.
The isolated primary culture of cardiomyocytes was inoculated in an amount of 10^4 cells per well to a 96-well plate, and the volume of each well was 100 ul (marginal wells were filled with sterile PBS). […] The optical density (OD) value of each well was measured at wavelength of 550 nm by enzyme-linked immunoassay instrument, and each well was repeatedly measured for 5 times and the results were recorded. […]

The test system of another data set is primary cardiomyocytes. Briefly: Measurement of cell inhibition rate (MTT) on normal primary cardiomyocytes. The data set is classed as cell-based, Wistar sucking mice. The protocol:
The isolation and culture of cardiomyocytes were performed by referring to the differential adhesion method (Kreider, A. Messing, H. Doan, S. U. Kim, R. P. Lisak and D. E. Pleasure, Enrichment of Schwann cell cultures from neonatal rat sciatic nerve by differential adhesion, Brain Res 2 (1981), pp. 433-444). […]
The isolated primary culture of cardiomyocytes was inoculated in an amount of 10^4 cells per well to a 96-well plate, and the volume of each well was 100 ul (marginal wells were filled with sterile PBS). […] The optical density (OD) value of each well was measured at wavelength of 550 nm by enzyme-linked immunoassay instrument, and each well was repeatedly measured for 5 times and the results were recorded.

For `C/C=C(/C)C(=O)O[C@H]1C(C)=C2[C@H]([C@@H]1OC(=O)CCCCCCC)[C@@](C)(OC(C)=O)C[C@H](OC(=O)CCC)[C@@]1(O)[C@H]2OC(=O)[C@@]1(C)O` [TG, thapsigargin, reference compound], the “Survival rate of cardiomyocytes (%)” value in data set [1] (TG intervening group (0.4 uM), TG alone) came to 59 ± 1.1%.
Turning to `O=C(/C=C/c1ccccc1)CC(NC(=S)N1CCOCC1)C(Cl)(Cl)Cl` (stereo not shown) [Example 1, (1E)-1-phenyl-5-(1-morpholinylthiocarboxamido)-6,6,6-trichloro-1-ene-3-hexanone], the inhibition at 100 µM in the data set with primary cardiomyocytes (Cardiomyocyte, 100 μM group, MTT, 48 h, normal primary cardiomyocytes, read-out: Inhibitive rate of cardiomyocytes (%)) was found to be 2.91 ± 1.88%. For the same compound, the inhibition at 300 µM with primary cardiomyocytes (Cardiomyocyte, 300 μM group, MTT, 48 h, normal primary cardiomyocytes, read-out: Inhibitive rate of cardiomyocytes (%)) turned out to be 0.76 ± 0.42%. In the data set on primary cardiomyocytes (concentration within 300 μM), the “effect on survival rate of normal cardiomyocyte” value is on record as “no effect”. For the same compound, the “Survival rate of cardiomyocytes (%)” value in data set [1] (TG (0.4 uM) + compound 0.3 μM group, pretreatment 30 min before inducing apoptosis) turned out to be 76.3 ± 7.6%; in data set [1] (TG (0.4 uM) + compound 1 μM group, pretreatment 30 min before inducing apoptosis) it was 83.3 ± 7.1%; in data set [1] (TG (0.4 uM) + compound 10 μM group, pretreatment 30 min before inducing apoptosis) it was 92.2 ± 5.6%.
